# From PubChem BioAssay AID504544 (Sanford-Burnham Center for Chemical Genomics, 2011)
# The source made the active and inactive calls. The rule behind the calls is not given here.
# Tested on: S. cerevisiae tim23-1 mutant growth, luminescence
# Experiment: growth inhibition of tim23-1 mutant yeast, dose response, counter-screen for tim10-1 yeast inhibitor project, luminescence, uHTS hits (AID 504544)
row,SMILES,IC50
1,Cc1ccc(NC2=C/C(=N\S(=O)(=O)c3cccs3)c3ccccc3C2=O)c(C)c1,11.9 µM
2,CCCCNC(=S)Nc1ccc(C(F)(F)F)cc1,12 µM
3,Cn1c(/C=C/c2ccc([N+](=O)[O-])o2)nc2ccccc2c1=O,6.28 µM
4,Cc1ccc(F)c([C@H]2[C@@H]3C=CCC[C@@]3(C)C(=O)N2Cc2ccccc2)c1,18.4 µM
5,CN(C)CCCN(C(=O)c1cc2cc([N+](=O)[O-])ccc2s1)c1nc2cc3c(cc2s1)OCCO3,13.5 µM
6,N=C(N)c1ccc(/C=C/c2ccc(C(=N)N)cc2O)cc1,6.44 µM
7,O=C(/C=C/c1ccc2c(c1)OCCCO2)c1ccccc1O,18.3 µM
8,Cc1cc(/C=C\c2ccc3cc(N(C)C)ccc3[n+]2C)c(C)n1-c1ccccc1,5.95 µM
9,Cc1cccc(NC(=O)c2ccc([N+](=O)[O-])s2)n1,1.55 µM
10,Clc1ccccc1OCc1nnc(-c2ccccc2Br)o1,32.9 µM
11,COc1ccc(C(=O)O/N=C(\N)c2ccc(Cl)cc2)cc1,7.13 µM
12,CCCCCCCCCCOC(=O)Cn1c(COc2ccccc2OC)[n+](C)c2ccccc21,12 µM
13,CCCCNC(=S)N=Nc1c(O)[nH]c2ccccc12,4.92 µM
14,O=C(NNC(=S)Nc1ccc(Cl)cc1)c1ccccc1OC(F)F,8.73 µM
15,Clc1ccc(CNc2nc(CN3CCOCC3)nc3scc(-c4ccccc4)c23)cc1,11.4 µM
16,COc1cc(N=c2ssnc2Cl)c(OC)cc1Cl,3.77 µM
17,CC(C)C(=O)N1CCN(c2ccccc2NC(=O)c2ccc([N+](=O)[O-])o2)CC1,8.89 µM
18,Cc1ccc(NC(=O)c2cc(S(=O)(=O)NCCC3=CCCCC3)ccc2F)cc1,33.2 µM
19,N/C(=N\OC(=O)c1ccc(F)cc1)c1ccc(Br)cc1,3.14 µM
20,O=C(Nc1cccnc1)c1cn(-c2ccccc2)nc1-c1cccs1,28.4 µM
21,CCOC(=O)/C=C/C(=O)Nc1cccc([N+](=O)[O-])c1,2.61 µM
22,N/C(=N\OC(=O)c1ccc(Cl)cc1)c1ccc(Cl)cc1,> 100 µM (inactive)
23,CC(=O)N1CCN(c2cc(N3CCc4ccccc4C3)c(F)cc2[N+](=O)[O-])CC1,34.7 µM
24,Cn1c(NCCCO)nc2c(c1=O)C1(CCCCC1)Cc1ccccc1-2,8.71 µM

row,SMILES,IC50
1,COc1ccc(-c2nncnn2)cc1,3.86 µM
2,S=C(NCCCc1ccccc1)Nc1ccc(Cl)cc1,7.14 µM
3,CN(CCCC(=O)O)c1ccc(N=Nc2ccc([N+](=O)[O-])cc2)cc1,11.6 µM
4,CCN(CC)C1CC(=O)N(c2cccc(Cl)c2)C1=O (stereo unspecified),2.46 µM
5,CCCCc1ccc(NC(=S)Nc2ccc(Nc3ccc(OC)cc3)cc2)cc1,30.1 µM
6,O=C(NNC(=S)Nc1cccc(C(F)(F)F)c1)c1cccc(Cl)c1,25.5 µM
7,CCOC(=O)c1ccc(N2C(=O)C=CC2=O)cc1,0.48 µM
8,CCOC(=O)c1c(CSc2ccc(C)cc2)n(C)c2cc(Br)c(O)c(CN(C)C)c12,19.9 µM
9,Cc1nonc1C1CCCN1C(=O)c1cc(COc2cccc(C(F)(F)F)c2)on1 (stereo unspecified),19.2 µM
10,Cc1ccccc1/C=C/C(=O)c1ccc([N+](=O)[O-])o1,1.5 µM
11,COc1ccc(Cl)cc1NC(=O)CN(C)C(=O)C12CC3CC(CC(Cl)(C3)C1)C2,23.8 µM
12,CC(=O)c1ccc(NC(=S)NC(C)c2ccc(Cl)cc2Cl)cc1 (stereo unspecified),13.8 µM
13,O=c1c2ccccc2[se]n1-c1ccccc1,0.88 µM
14,Nc1nc(-c2ccc(Br)cc2)cs1,17.6 µM
15,COc1cc(/C=C/c2ccc3cccc(O)c3n2)c(Br)cc1O,18.2 µM
16,Cc1cc(C)c(CSc2ncc(-c3ccc([N+](=O)[O-])cc3)[nH]2)c(C)c1,17.4 µM
17,Cc1ccc(S(=O)(=O)c2nc(S(C)(=O)=O)sc2N2CCCCC2C)cc1 (stereo unspecified),11.7 µM
18,O=C1CS(=O)(=O)N(Cc2cccc(F)c2)c2ccc(Br)cc21,12.6 µM
19,CCOC(=O)/C=C/C(=O)OCC(=O)Nc1ccc([N+](=O)[O-])cc1,7.49 µM
20,CC(C)(C)c1ccc(CN2N=Nc3ccccc3S2(=O)=O)cc1,5.66 µM
21,Nc1nc(N)c(C=Nc2ccc(Br)cc2)c(Nc2ccc(Br)cc2)n1,14 µM
22,CCCCCCC(=O)N(O)C1CC(=O)N(c2ccc(C)cc2)C1=O (stereo unspecified),6.88 µM
23,O=C(O)/C=C/C(=O)c1ccc2c(c1)CCc1ccccc1-2,5.09 µM
24,O=C1C2C3C=CC(CO)(O3)C2C(=O)N1c1ccccc1-c1ccccc1 (stereo unspecified),1.83 µM

row,SMILES,IC50
1,C[C@@H]1CC=C[C@H]2[C@H]1C(=O)N(Cc1ccccc1)[C@H]2c1ccc(-c2ccoc2)cc1F,12.9 µM
2,COc1ccc(-c2sc3cc4c(cc3c2C#CC2(N)CCCCC2)OCO4)cc1,9.36 µM
3,O=C(NC(=S)Nc1ccccc1N1CCCC1)c1ccc([N+](=O)[O-])cc1,19.3 µM
4,CCOC(=O)c1ccc(N=c2ssnc2Cl)cc1,2.22 µM
5,Cc1cc(C)cc(N2C(=O)CC(Sc3nnnn3-c3ccccc3)C2=O)c1 (stereo unspecified),1.26 µM
6,COc1ccc2sc(N(CCCN(C)C)C(=O)c3ccc(S(=O)(=O)N4CCCc5ccccc54)cc3)nc2c1,11.9 µM
7,Cc1ccc(CNC(=O)c2ccc(Cn3nc(C)c(Cl)c3C)o2)cc1,17.4 µM
8,COC(=O)C(C(C)=O)C1=C/C(=N\S(=O)(=O)c2ccc(C)cc2)c2ccccc2C1=O (stereo unspecified),9.86 µM
9,COc1ccc(Br)cc1[C@H]1[C@H]2C=CC[C@@H](C)[C@@H]2C(=O)N1Cc1ccccc1,16.3 µM
10,N/C(=N\OC(=O)CCC1CCCC1)c1cccc([N+](=O)[O-])c1,10.8 µM
11,CCOc1ccccc1N1C(=O)CC(Sc2n[nH]c(-c3ccccc3)n2)C1=O (stereo unspecified),4.1 µM
12,O=C(OCn1ncc(Br)c(Br)c1=O)c1ccc(F)cc1,1.78 µM
13,N#C/C(=N/Nc1ccc(OC(F)(F)F)cc1)C(N)=S,1.31 µM
14,c1ccc(Nc2cccc(Nc3ccccc3)n2)cc1,9.11 µM
15,Cc1ccccc1OCC(=O)Nc1ccc(S(=O)(=O)N2CCCC2)cc1,7.95 µM
16,Cc1onc(-c2ccc3c(c2)OCO3)c1-c1ccc2[nH]ccc2c1,10.7 µM
17,NNc1nc(-c2ccccc2)c2cc(Br)ccc2n1,21.8 µM
18,CCCOc1ccc(N2C(=O)CC(N3CCC(O)(c4cccc(C(F)(F)F)c4)CC3)C2=O)cc1 (stereo unspecified),7.41 µM
19,CCCOc1ccc(CN(CCC#N)C(=S)NC(=O)c2ccccc2)cc1,22.7 µM
20,CCOC(=O)c1ccc(NC(=O)CC2OCCN(CC)C2=O)cc1 (stereo unspecified),2.02 µM
21,COc1ccc(C(=O)O/N=C(\N)Cc2ccc(Cl)c(Cl)c2)cc1OC,1.38 µM
22,Cc1cc([N+](=O)[O-])ccc1-c1ccc(C2Nc3ccccc3C(=O)N2O)o1 (stereo unspecified),18.1 µM
23,O=C(OCn1ncc(Br)c(Br)c1=O)c1ccccc1Cl,2.07 µM
24,CC(C)(C)OC(=O)N[C@@H](Cc1ccccc1)c1nnc(S(=O)(=O)Cc2cccc(F)c2)o1,2.28 µM

row,SMILES,IC50
1,COc1ccc(-c2[nH]ncc2N=Nc2ccccc2)cc1,9.41 µM
2,CCCOc1ccccc1NC(=O)/C=C/C(N)=O,2.34 µM
3,CC(C)C(c1nnnn1C1CCCC1)N1CCCc2ccccc21 (stereo unspecified),13.7 µM
4,CC(C)CN(CC(C)C)C(=S)Nc1ccc(Cl)cc1,55.2 µM
5,CC1(CC(=O)N/N=C/c2ccc(OCc3ccc(Cl)cc3Cl)cc2)OCCCO1,4.3 µM
6,CCSc1nc2ccccc2n1C(=O)/C=C\c1ccc(OC)c(OC)c1,11.8 µM
7,O=C(NC(=S)NNC(=O)c1ccccc1[N+](=O)[O-])c1ccc(Br)cc1,12.5 µM
8,Cc1nc(Nc2ccccc2)sc1-c1ccccc1,29 µM
9,Fc1ccc(CNC(=S)Nc2cccc(C(F)(F)F)c2)cc1,12.3 µM
10,COc1ccc(C(=O)O/N=C(\N)c2ccccc2Cl)cc1OC,12.1 µM
11,O=C1CC(Sc2nnnn2-c2ccccc2)C(=O)N1c1cccc(Cl)c1 (stereo unspecified),2.92 µM
12,CCOc1ccc(-n2cc(-c3ccccc3)c3c(=O)[nH]cnc32)cc1,13.8 µM
13,CCCn1c(CC)nc([N+](=O)[O-])c1S(=O)(=O)c1ccccc1,6.66 µM
14,Cc1ccc(OCC(=O)O/N=C(\N)Cc2ccc(Cl)cc2)cc1,61.9 µM
15,NC(=NCCCCCCN=C(N)/N=C(\N)Nc1ccc(Cl)cc1)/N=C(\N)Nc1ccc(Cl)cc1,> 100 µM (inactive)
16,CCOC(=O)c1cc(-c2cccs2)nc2c1c(C)nn2-c1ccccn1,17.3 µM
17,Cc1ccc(NC(=S)/N=C(\N)Nc2nc(C)c3cc(C)ccc3n2)c(C)c1,17 µM
18,CCOc1ccccc1NC(=O)/C=C/C(N)=O,7.36 µM
19,c1ccc(Nc2cccc(Nc3ccccc3)c2)cc1,11 µM
20,N/C(=N\OC(=O)CCC1CCCC1)c1ccccc1,29.6 µM
21,COc1ccc(Br)cc1[C@H]1[C@@H]2C=CCC[C@@]2(C)C(=O)N1Cc1ccccc1,14.3 µM
22,COc1cc(OC)c(C(=O)O/N=C(\N)c2ccc(C)cc2)cc1OC,6.94 µM
23,CC1=C/C(=N\OS(=O)(=O)c2ccccc2)C(C)=CC1=O,< 0.2 µM
24,COc1ccc(/C=C/C(=O)c2ccccc2)cc1Cn1nnc2ccccc21,7.94 µM

row,SMILES,IC50
1,CC1=C/C(=N\OS(=O)(=O)c2ccccc2)C=CC1=O,0.27 µM
2,COc1ccc(-n2cc(-c3ccccc3)c3c(=S)nc[nH]c32)cc1,38.4 µM
3,COc1ccc(/C(N)=N/OC(=O)c2ccc3c(c2)OCO3)cc1,7.52 µM
4,O=S(=O)(CCN(CCS(=O)(=O)C(F)(F)F)CC1CCCO1)C(F)(F)F (stereo unspecified),11.2 µM
5,Cc1ccc(NC(=O)c2ccc(Cl)c(N3C(=O)C=CC3=O)c2)cc1,4.13 µM
6,O=c1oc2ccccc2c(O)c1/C=C1\C=Nc2ccccc21,5.55 µM
7,Nc1ccccc1C(=O)/C=C/c1ccc2c(c1)OCO2,18.9 µM
8,Nc1c(C(=O)Nc2ccccc2)c2nc3ccccc3nc2n1CCCN1CCOCC1,12.5 µM
9,O=c1c2ccccc2nc(/C=C/c2ccc([N+](=O)[O-])o2)n1CCCO,5.81 µM
10,COc1ccc(NC2CCN(C3CC(=O)N(c4ccc(F)c(Cl)c4)C3=O)CC2)cc1 (stereo unspecified),5.66 µM
11,Cc1ccc(/C(N)=N/OC(=O)c2ccc3c(c2)OCO3)cc1,15.5 µM
12,CCOC(=O)c1c(OCC)[nH]c2c1cc(O)c1ccccc12,17.1 µM
13,C/C(=N\NC(=S)NCc1ccccc1)c1ccc(Cl)s1,17.5 µM
14,CC(C)NC(=S)N/N=C1\CCCCc2ccccc21,10.9 µM
15,COc1ccc(/C(C)=N/NC(=S)NCCc2ccccc2)cc1,19.5 µM
16,COC(=O)c1c(N2C(=O)CC(Sc3ccccc3C(=O)O)C2=O)sc2c1CCCC2 (stereo unspecified),3.13 µM
17,COc1ccc(C(=O)Nc2ccc(-n3nncc3C(C)(C)C)cc2)cc1,8.87 µM
18,COc1ccc(Cl)cc1NC(=S)NCCc1ccc(F)cc1,12.5 µM
19,Cc1cccc(NC(=S)N/N=C2/CCCCc3ccccc32)c1,7.44 µM
20,CC[C@@H]1CC=C[C@H]2[C@H]1C(=O)N(Cc1ccccc1)[C@H]2c1ccoc1,7.42 µM
